The subject of test [1] is mice with established Type II collagen arthritis. The test is described as follows: Male DBA/1J mouse established Type II collagen arthritis. The format is in vivo. The procedure:
Male DBA/1J mice (7-9 weeks old on arrival; at least 7 weeks old at time of first immunization) were housed 5 per cage and were acclimated for enough days after arrival such that all animals were at least 7 weeks old at start of study.
Mice were anesthetized with Isoflurane and given intradermal collagen (2 mg/ml) injections at the base of the tail in a volume of 150 μl (D0 and D21). On days 21-35, onset of arthritis occurred and mice were randomized into treatment groups. Randomization into each group was done after swelling was obviously established in at least one paw, and attempts were made to assure approximately equal mean scores across the groups at time of enrollment. Treatment was initiated after enrollment and continued every day for a total of 10 days as outlined in Table 3. During the ten days of treatment, clinical scores were given for each of the paws (right front, left front, right rear, and left rear) according to the scoring methods provided below. […]
• 0 Normal • 1 Minimal—small areas of resorption, not readily apparent on low magnification, rare osteoclasts in affected joints • 2 Mild—more numerous areas of resorption, not readily apparent on low magnification, osteoclasts more numerous in affected joints • 3 Moderate—obvious resorption of medullary trabecular and cortical bone without full thickness defects in cortex, loss of some medullary trabeculae, lesion apparent on low magnification, osteoclasts more numerous in affected joints • 4 Marked—Full thickness defects in cortical bone, often with distortion of profile of remaining cortical surface, marked loss of medullary bone, numerous osteoclasts, affects most joints • Severe—Full thickness defects in cortical bone and destruction of joint architecture of all joints
Histologic parameters (mean±SE) for each group were analyzed for differences using the Chi Square Test and one way ANOVA. […]

Test [2] relates to rats with CIA. Briefly: Rat collagen-induced arthritis (CIA): paw swelling and knee histopathology. The format is in vivo. The procedure:
Female Lewis rats were anesthetized with 3-5% isoflurane and arthritis was induced by intradermal injection of 0.3 mL (100 μL at three different sites) of an emulsion […] 1.5 mg/mL of type II bovine collagen, CII (Elastin Products Inc., Cat# CM276), in incomplete Freund's adjuvant (IFA) at the base of the tail on day 0 and 6. Control rats were injected with an equal amount of IFA only.
The volume of both hind paws were measured using a water displacement plethysmometer (Ugo Basile, Biological Research Apparatus, Italy), and the onset of arthritis was indicated by increased paw volume, which appeared approximately on day 11 post injection. Both paw volumes and body weights were measured throughout the study every 2-3 days. Nineteen to twenty-one days after CII injection, the rats were euthanized with CO2. Blood was collected by cardiac puncture and serum was saved.
were measured under two different treatment regimens. In the first (prophylactic) treatment regimen, Compound X was administered i.v., twice daily, at 0.3 mg/kg from day 0 to day 6 or 10. For ex vivo studies, animals were euthanized on day 6 after the last injection and their inguinal lymph nodes were harvested. […] For ex vivo studies, animals were euthanized on day 16 and inguinal lymph nodes were harvested. Venous blood samples were collected during the course of treatment. For CD3 activation, 96-well flat bottom plates were coated with anti-CD3 mAb (eBioscience, clone G4.18) 1 μg/mL. Plates were stored overnight at 4° C., and were subsequently rinsed with PBS once before use. Bovine Type II collagen for tissue culture was purchased from Chondrex (Cat# 2022) and was reconstituted according to the manufacturer's instructions. All data were processed and analyzed by t-test using GraphPad Prism software.
After the animals were euthanized, both hind paws and knees were removed, hind paws were weighed, and the paws and knees were placed in formalin. Following 1-2 days in fixative and 4-5 days in decalcifier, the ankle joints were cut in half longitudinally, and the knees were cut in half in the frontal plane. The joints were then processed, embedded, sectioned and stained with toluidine blue. Collagen arthritic ankles and knees were given scores of 0-5 for inflammation, pannus formation and bone resorption according to the following criteria:
1 Minimal infiltration of inflammatory cells in periarticular tissue 2 Mild infiltration 3 Moderate infiltration with moderate edema 4 Marked infiltration with marked edema 5 Severe infiltration with severe edema […]

[3] abbreviates: therapeutic, twice daily i.v. 0.3 mg/kg, days 8 to 19.

As to `CC[C@@H](O)/C=C/C=C\C[C@@H](O)/C=C/C=C/C=C\[C@@H](O)CCCC(=O)O` [Compound X], the “clinical symptoms of arthritis (clinical scoring in the paws)” value in test [1] (once daily i.v. at both 0.5 and 5.0 μg/kg, vs arthritic control) is “inhibited”. Also, the “pannus formation and bone loss (histologic scoring)” value in test [1] (once daily i.v. at both 0.5 and 5.0 μg/kg, vs vehicle control) is given as “reduced”. For the same compound, the “score of bone damage (histologic scoring in joints)” value in test [1] (twice daily 5 μg/kg i.v., vs vehicle control) is “significant decrease”. In test [2] (prophylactic, twice daily i.v. 0.3 mg/kg, days 0 to 10), the “paw swelling (as measured by ankle diameter)” value is recorded as “significant reduction”. In test [2] (therapeutic dosing), the “bone resorption and joint damage” value is listed as “protected”. In addition, in test [2] (setting [3]), the “knee histopathology scores: inflammation, pannus, cartilage damage, bone resorption” value is listed as “significant reduction” and the “mean ankle joint volume” value is on record as “significant reduction”.

The values are drawn from patent US20090137527A1, “Compositions and methods for modulating immune function” (Resolvyx Pharmaceuticals, Inc., priority 2007, published 2009).
